Publication PMC12125351 (Communications Biology, 2025)
No end group written: not given here.

System: P. aeruginosa (ATCC 27853)
Assay type: cell-based
Settings: broth microdilution in MHB, 37 °C, 16–20 h; triplicate, n = 3

**Q.** For LVQRGRFGRFLSRIRRIRPRINFNIKGSI [AMP-17], which “Experimentally measured MIC against P. aeruginosa (ATCC 27853)” value is on record?
**A.** Its value is “above 25 μM”.
